From article PMC5899197 (Journal of Virology, 2018) come the findings set out here.

In this test the target is T1, BNeV VLPs (rMA415; VP1-major capsid and VP2-minor capsid) (Newbury agent 1, UniProt Q288N7).
T1 construct: gene ORF1
T1 sequence (Q288N7 whole entry, looked up): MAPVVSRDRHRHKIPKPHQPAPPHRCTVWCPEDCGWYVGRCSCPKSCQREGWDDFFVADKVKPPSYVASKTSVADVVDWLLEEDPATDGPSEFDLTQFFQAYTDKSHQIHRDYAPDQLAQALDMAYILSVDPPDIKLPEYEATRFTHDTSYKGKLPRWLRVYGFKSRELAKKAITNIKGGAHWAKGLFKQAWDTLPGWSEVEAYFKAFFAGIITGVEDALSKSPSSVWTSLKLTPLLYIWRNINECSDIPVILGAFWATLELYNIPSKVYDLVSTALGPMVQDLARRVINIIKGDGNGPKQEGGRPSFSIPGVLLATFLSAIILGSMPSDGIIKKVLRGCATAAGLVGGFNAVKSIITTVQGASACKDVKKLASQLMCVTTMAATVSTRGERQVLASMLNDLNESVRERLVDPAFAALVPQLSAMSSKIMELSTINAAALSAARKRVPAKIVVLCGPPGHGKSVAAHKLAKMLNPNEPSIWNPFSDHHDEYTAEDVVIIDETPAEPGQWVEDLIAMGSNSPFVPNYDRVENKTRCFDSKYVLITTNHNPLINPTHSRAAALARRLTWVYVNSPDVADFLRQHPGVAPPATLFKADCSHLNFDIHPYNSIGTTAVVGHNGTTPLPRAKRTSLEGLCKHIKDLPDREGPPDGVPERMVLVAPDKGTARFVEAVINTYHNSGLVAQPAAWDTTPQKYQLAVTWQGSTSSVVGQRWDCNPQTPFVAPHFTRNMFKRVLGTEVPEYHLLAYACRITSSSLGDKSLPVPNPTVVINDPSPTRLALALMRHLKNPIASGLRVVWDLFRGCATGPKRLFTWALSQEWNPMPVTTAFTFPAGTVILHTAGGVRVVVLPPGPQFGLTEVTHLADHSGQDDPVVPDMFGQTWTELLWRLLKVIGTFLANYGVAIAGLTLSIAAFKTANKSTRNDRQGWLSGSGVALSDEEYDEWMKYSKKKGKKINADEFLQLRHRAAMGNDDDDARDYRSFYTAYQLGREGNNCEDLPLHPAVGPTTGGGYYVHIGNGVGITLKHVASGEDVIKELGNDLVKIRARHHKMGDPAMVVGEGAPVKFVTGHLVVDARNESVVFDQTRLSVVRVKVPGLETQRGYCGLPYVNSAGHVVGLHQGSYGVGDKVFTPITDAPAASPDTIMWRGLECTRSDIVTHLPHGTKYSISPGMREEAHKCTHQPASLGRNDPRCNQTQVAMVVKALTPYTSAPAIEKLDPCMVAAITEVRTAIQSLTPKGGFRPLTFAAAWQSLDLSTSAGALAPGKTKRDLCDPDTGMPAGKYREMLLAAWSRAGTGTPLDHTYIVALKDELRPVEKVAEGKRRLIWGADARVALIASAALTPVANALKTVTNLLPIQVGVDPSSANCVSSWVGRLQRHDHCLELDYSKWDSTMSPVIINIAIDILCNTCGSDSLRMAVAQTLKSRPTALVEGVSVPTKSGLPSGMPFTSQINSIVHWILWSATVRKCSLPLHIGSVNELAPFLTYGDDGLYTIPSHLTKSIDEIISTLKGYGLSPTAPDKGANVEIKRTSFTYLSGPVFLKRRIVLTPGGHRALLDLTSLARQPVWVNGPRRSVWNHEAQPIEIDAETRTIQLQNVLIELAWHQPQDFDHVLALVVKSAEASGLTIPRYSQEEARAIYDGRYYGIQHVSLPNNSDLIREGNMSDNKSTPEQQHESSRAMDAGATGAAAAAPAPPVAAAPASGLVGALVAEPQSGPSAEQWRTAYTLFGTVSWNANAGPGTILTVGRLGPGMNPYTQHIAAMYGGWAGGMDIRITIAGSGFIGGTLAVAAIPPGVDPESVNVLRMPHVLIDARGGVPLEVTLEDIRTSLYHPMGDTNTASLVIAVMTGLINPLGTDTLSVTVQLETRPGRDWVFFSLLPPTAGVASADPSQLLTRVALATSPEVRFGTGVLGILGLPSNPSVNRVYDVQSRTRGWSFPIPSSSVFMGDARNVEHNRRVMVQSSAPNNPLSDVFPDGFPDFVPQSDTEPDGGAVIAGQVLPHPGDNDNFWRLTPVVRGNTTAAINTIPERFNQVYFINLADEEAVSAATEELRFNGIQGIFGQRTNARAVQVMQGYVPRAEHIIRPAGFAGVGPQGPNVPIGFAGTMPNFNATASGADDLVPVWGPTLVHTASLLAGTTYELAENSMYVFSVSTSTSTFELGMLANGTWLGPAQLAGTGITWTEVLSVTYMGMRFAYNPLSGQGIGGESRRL
It is filed as binding.
Take `CC(=O)N[C@H]1C(O)O[C@H](CO)[C@@H](O[C@@H]2O[C@H](CO)[C@H](O)[C@H](O)[C@H]2O[C@@H]2O[C@@H](C)[C@@H](O)[C@@H](O)[C@@H]2O)[C@@H]1O` (stereo partly shown) [H2]: the “plate binding assay (ELISA), HRP-streptavidin, A450” value (“plate binding assay (ELISA)” below) is “sialyl-Le^a (SLe^a), Le^y, Le^x, αGal, H2, H1, SLe^x, A, and B type immobilized synthetic HBGA”. In the case of `CC(=O)N[C@H]1C(O)O[C@H](CO)[C@@H](O[C@@H]2O[C@H](CO)[C@H](O)[C@H](O)[C@H]2O)[C@@H]1O[C@@H]1O[C@@H](C)[C@@H](O)[C@@H](O)[C@@H]1O` (stereo partly shown) [Le^x], the “plate binding assay (ELISA)” value is “sialyl-Le^a (SLe^a), Le^y, Le^x, αGal, H2, H1, SLe^x, A, and B type immobilized synthetic HBGA”.

Consider `CC(=O)N[C@H]1C(O)O[C@H](CO)[C@@H](O[C@@H]2O[C@H](CO)[C@H](O)[C@H](O)[C@H]2O[C@@H]2O[C@@H](C)[C@@H](O)[C@@H](O)[C@@H]2O)[C@@H]1O[C@@H]1O[C@@H](C)[C@@H](O)[C@@H](O)[C@@H]1O` (stereo partly shown) [Le^y], for which the “plate binding assay (ELISA)” value was “sialyl-Le^a (SLe^a), Le^y, Le^x, αGal, H2, H1, SLe^x, A, and B type immobilized synthetic HBGA”. On to `CC(=O)N[C@H]1[C@H]([C@H](O)[C@H](O)CO)O[C@@](O[C@H]2[C@@H](O)[C@@H](CO)O[C@@H](O[C@H]3[C@H](O[C@@H]4O[C@@H](C)[C@@H](O)[C@@H](O)[C@@H]4O)[C@@H](CO)OC(O)[C@@H]3NC(C)=O)[C@@H]2O)(C(=O)O)C[C@@H]1O` (stereo partly shown) [sialyl-Le^a], for which the “plate binding assay (ELISA)” value is “sialyl-Le^a (SLe^a), Le^y, Le^x, αGal, H2, H1, SLe^x, A, and B type immobilized synthetic HBGA”.
